Results as given in patent publication US8541573B2, “Substituted sulfonamide compounds” (Gruenenthal GmbH, priority 2008, dated 2013).

Tests used:
[1] = molecular target: T1, B1R of rats (Rattus norvegicus, UniProt P97583); assay: Functional investigation on the bradykinin 1 receptor (B1R), cell-based fluorescent calcium-mobilization assay (FLIPR/Novostar), rat; conditions: 10 μM test substance; CHO K1 cells stably transfected with rat B1R gene; agonist Des-Arg9-bradykinin at EC80; % inhibition compared with maximum achievable inhibition; read-out: B1R antagonism, rat [10 μM] % inhibition
T1 construct: expressed in transfected cells; host or cells: CHO K1 cells
T1 sequence (P97583 1-337): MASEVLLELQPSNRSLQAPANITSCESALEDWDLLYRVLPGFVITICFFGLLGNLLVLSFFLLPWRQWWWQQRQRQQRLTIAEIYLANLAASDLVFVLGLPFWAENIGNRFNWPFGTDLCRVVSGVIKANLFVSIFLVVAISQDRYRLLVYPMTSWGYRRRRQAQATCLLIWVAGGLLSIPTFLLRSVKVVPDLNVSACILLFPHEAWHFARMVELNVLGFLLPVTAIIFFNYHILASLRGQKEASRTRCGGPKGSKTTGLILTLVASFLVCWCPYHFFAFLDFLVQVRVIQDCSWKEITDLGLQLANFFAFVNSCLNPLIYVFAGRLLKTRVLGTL
Method: (§1) The agonistic or antagonistic action of substances can be quantified on the bradykinin 1 receptor (B1R) of the human and rat species with ectopically expressing cell lines (CHO K1 cells) and with the aid of a Ca^2+-sensitive dyestuff (Fluo-4) in a fluorescent imaging plate reader (FLIPR). The figure in % activation is based on the Ca^2+ signal after addition of Lys-Des-Arg^9-bradykinin (0.5 nM) or Des-Arg^9-bradykinin (100 nM). Antagonists lead to a suppression of the Ca^2+ inflow after addition of the agonist. % inhibition compared with the maximum achievable inhibition is stated.
(§2) The agonistic or antagonistic action of substances can be determined on the bradykinin 1 receptor (B1R) of humans and rats by means of a cell-based flourescent calcium-mobilization assay. According to this assay agonist-induced increase of intracellular free Ca^2+ is quantified by means of a Ca^2+-sensitive dye (Fluo-4 type, Molecular Probes Europe BV, Leiden, Netherlands), in a Fluorescent Imaging Plate Reader (FLIPR, Molecular Devices, Sunnyvale, USA) and/or the Novostar (BMG Labtech GmbH, Offenburg, Germany).
(§3) Chinese hamster ovary cells (CHO K1 cells), which are stably transfected with the human B1R gene (hB1R cells) or with the B1R gene of rats (rB1R cells), are used. For functional investigations these cells are seeded into black 96-well plates with a clear bottom (BD Biosciences, Heidelberg, Germany or Greiner, Frickenhausen, Germany) in a density of 20,000-35,000 cells/well. The cells are incubated overnight in a humidified atmosphere at 37° C. and 5% CO2 in culture medium (hB1R cells: Nutrient Mixture Ham's F12, Gibco Invitrogen GmbH, Karlsruhe, Germany or DMEM, Sigma-Aldrich, Taufkirchen, Germany; rB1R cells: D-MEM/F12, Gibco Invitrogen GmbH, Karlsruhe, Germany) with 10 vol. % FBS (foetal bovine serum, Gibco Invitrogen GmbH, Karlsruhe, Germany).
(§4) On the following day the cells are loaded with the Ca^2+-sensitive dye Fluo-4-AM (Molecular Probes Europe BV, Leiden, Netherlands):
(§5) Method A: The medium of the cells is removed and cell plates are incubated with loading solution, which contains 2.13 μM Fluo-4-AM, 2.5 mM probenecid (Sigma-Aldrich, Taufkirchen, Germany), and 10 mM HEPES (Sigma-Aldrich, Taufkirchen, Germany) in HBSS buffer (Hank's buffered saline solution, Gibco Invitrogen GmbH, Karlsruhe, Germany) for 60 minutes at 37° C. After the plates are washed twice with HBSS buffer, HBSS buffer supplemented 0.1% BSA (bovine serum albumin; Sigma-Aldrich, Taufkirchen, Germany), 5.6 mM glucose and 0.05% gelatine (Merck KGaA, Darmstadt, Germany) is added. Cell plates are incubated for at least 20 minutes in the dark at room temperature before they are used for the Ca^2+ measurement in the FLIPR or Novostar.
(§6) Method B: The plates are washed with buffer A (15 mM HEPES, 80 mM NaCl, 5 mM KCl, 1.2 mM CaCl2, 0.7 mM MgSO4, 2 mg/ml glucose, 2.5 mM probenecid) and subsequently loaded with buffer A containing 2.4 μM Fluo-4-AM and 0.025% pluronic F127 (Sigma-Aldrich, Taufkirchen, Germany) for 60 minutes at 37° C. Cell plates are washed twice with buffer A. Then, buffer A supplemented with 0.05% BSA and 0.05% gelatine is added and cell plates are incubated in the dark at room temperature for at least 20 minutes before measurement in the FLIPR or Novostar is started.
(§7) The Ca^2+-dependent fluorescence is measured both before and after the addition of substances (λex=488 nm, λem=540 nm). For quantification of the effect the highest fluorescence intensity (FC, fluorescence counts) over time is given. The FLIPR protocol consists of two substance additions, done within the instrument while continuously monitoring the Ca^2+-dependent fluorescence at 540 nm. When the Novostar was used, one addition had to be done outside the instrument. Test substances (10 μM) are initially pipetted onto the cells and the intracellular Ca^2+ rise is compared with the control (hB1R: Lys-Des-Arg9-bradykinin>=50 nM; rB1R: Des-Arg9-bradykinin>=1 μM). […]

[2] = molecular target: T2, human B1R (Homo sapiens, UniProt P46663); assay: Functional investigation on the bradykinin 1 receptor (B1R), cell-based fluorescent calcium-mobilization assay (FLIPR/Novostar), human; conditions: 10 μM test substance; CHO K1 cells stably transfected with human B1R gene; agonist Lys-Des-Arg9-bradykinin at EC80; % inhibition compared with maximum achievable inhibition; read-out: B1R antagonism, human [10 μM] % inhibition
T2 construct: expressed in transfected cells; host or cells: CHO K1 cells
T2 sequence (P46663 1-353): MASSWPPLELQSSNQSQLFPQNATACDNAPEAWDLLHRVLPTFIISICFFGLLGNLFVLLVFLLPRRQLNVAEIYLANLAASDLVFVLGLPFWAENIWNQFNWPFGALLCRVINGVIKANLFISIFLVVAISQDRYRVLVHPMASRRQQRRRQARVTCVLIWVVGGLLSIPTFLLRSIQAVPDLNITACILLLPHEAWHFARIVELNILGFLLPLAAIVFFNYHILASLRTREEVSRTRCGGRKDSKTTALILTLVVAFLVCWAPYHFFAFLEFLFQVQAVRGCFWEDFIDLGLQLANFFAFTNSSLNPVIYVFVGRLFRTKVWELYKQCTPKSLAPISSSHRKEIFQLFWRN
Method: as §1, §2, §3, §4, §5, §6, §7

| inhibition at 10 µM [1] | inhibition at 10 µM [2] | Structure (SMILES) |
| --- | --- | --- |
| 101% | 107% | COc1cc(C)c(S(=O)(=O)N(C)CCOCC(=O)N2CCC(CNC(=O)c3ccncc3)(N3CCN(C)CC3)CC2)c(C)c1 [Example 1, N-((1-(2-(2-(4-methoxy-N,2,6-trimethylphenylsulfonamido)ethoxy)acetyl)-4-(4-methylpiperazin-1-yl)piperidin-4-yl)methyl)isonicotinamide] |
| 74% | 81% | CC(=O)NCC1(N2CCN(C)CC2)CCN(C(=O)CCC2CCCCN2S(=O)(=O)c2cc(C)c(Cl)cc2C)CC1 (stereo not shown) [Example 2, N-((1-(3-(1-(4-chloro-2,5-dimethylphenylsulfonyl)piperidin-2-yl)propanoyl)-4-(4-methylpiperazin-1-yl)piperidin-4-yl)methyl)acetamide] |
| 104% | 103% | COc1cc(C)c(S(=O)(=O)N2CCCCC2COCC(=O)N2CCC(CNC(=O)Cc3ccccc3)(N3CCN(C)CC3)CC2)c(C)c1 (stereo not shown) [Example 3, N-((1-(2-((1-(4-methoxy-2,6-dimethylphenylsulfonyl)piperidin-2-yl)methoxy)acetyl)-4-(4-methylpiperazin-1-yl)piperidin-4-yl)methyl)-2-phenylacetamide] |
| 59% | 67% | CN1CCN(C2(CNC(=O)Cc3ccccc3)CCN(C(=O)CC3CCCCN3S(=O)(=O)c3cccc(C(F)(F)F)c3)CC2)CC1 (stereo not shown) [Example 4, N-((4-(4-methylpiperazin-1-yl)-1-(2-(1-(3-(trifluoromethyl)phenylsulfonyl)piperidin-2-yl)acetyl)piperidin-4-yl)methyl)-2-phenylacetamide] |
| 104% | 102% | COc1cc(C)c(S(=O)(=O)N2CCCCC2COCC(=O)N2CCC(CNC(=O)c3ccccc3)(N3CCN(C)CC3)CC2)c(C)c1 (stereo not shown) [Example 5, N-((1-(2-((1-(4-methoxy-2,6-dimethylphenylsulfonyl)piperidin-2-yl)methoxy)acetyl)-4-(4-methylpiperazin-1-yl)piperidin-4-yl)methyl)benzamide] |
| 24% | 99% | Cc1cc(S(=O)(=O)N2CCCCC2CCC(=O)N2CCC(CNC(=O)c3ccccc3)(N3CCN(C)CC3)CC2)c(C)cc1Cl (stereo not shown) [Example 6, N-((1-(3-(1-(4-chloro-2,5-dimethylphenylsulfonyl)piperidin-2-yl)propanoyl)-4-(4-methylpiperazin-1-yl)piperidin-4-yl)methyl)benzamide] |
| 105% | 102% | CC(=O)NCC1(N2CCN(C)CC2)CCN(C(=O)COCC2CCc3ccccc3N2S(=O)(=O)c2ccc(Cl)c(Cl)c2)CC1 (stereo not shown) [Example 7, N-((1-(2-((1-(3,4-dichlorophenylsulfonyl)-1,2,3,4-tetrahydroquinolin-2-yl)methoxy)acetyl)-4-(4-methylpiperazin-1-yl)piperidin-4-yl)methyl)acetamide] |
| 29% | 75% | CN1CCN(C2(CNC(=O)Cc3ccccc3)CCN(C(=O)CC(NS(=O)(=O)c3ccc4ccccc4c3)c3ccccc3)CC2)CC1 (stereo not shown) [Example 8, N-((4-(4-methylpiperazin-1-yl)-1-(3-(naphthalene-2-sulfonamido)-3-phenylpropanoyl)piperidin-4-yl)methyl)-2-phenylacetamide] |
| 11% | 99% | Cc1cc(S(=O)(=O)N2CCCCC2CCC(=O)N2CCC(CNC(=O)c3ccccn3)(N3CCN(C)CC3)CC2)c(C)cc1Cl (stereo not shown) [Example 9, N-((1-(3-(1-(4-chloro-2,5-dimethylphenylsulfonyl)piperidin-2-yl)propanoyl)-4-(4-methylpiperazin-1-yl)piperidin-4-yl)methyl)picolinamide] |
| 39% | 101% | Cc1cc(S(=O)(=O)N2CCCCC2CCC(=O)N2CCC(CNC(=O)Cc3ccccc3)(N3CCN(C)CC3)CC2)c(C)cc1Cl (stereo not shown) [Example 10, N-((1-(3-(1-(4-chloro-2,5-dimethylphenylsulfonyl)piperidin-2-yl)propanoyl)-4-(4-methylpiperazin-1-yl)piperidin-4-yl)methyl)-2-phenylacetamide] |
| 75% | 102% | CC(=O)NCC1(N2CCN(c3ccncc3)CC2)CCN(C(=O)CCC2CCCCN2S(=O)(=O)c2cc(C)c(Cl)cc2C)CC1 (stereo not shown) [Example 11, N-((1-(3-(1-(4-chloro-2,5-dimethylphenylsulfonyl)piperidin-2-yl)propanoyl)-4-(4-(pyridin-4-yl)piperazin-1-yl)piperidin-4-yl)methyl)acetamide] |
| 13% | 80% | CC(=O)NCC1(N2CCN(C)CC2)CCN(C(=O)CC2CCCCN2S(=O)(=O)c2cccc(C(F)(F)F)c2)CC1 (stereo not shown) [Example 12, N-((4-(4-methylpiperazin-1-yl)-1-(2-(1-(3-(trifluoromethyl)phenylsulfonyl)-piperidin-2-yl)acetyl)piperidin-4-yl)methyl)acetamide] |
| 52% | 104% | CN1CCN(C2(CNC(=O)Cc3ccccc3)CCN(C(=O)COCC3CCc4ccccc4N3S(=O)(=O)c3ccc(Cl)c(Cl)c3)CC2)CC1 (stereo not shown) [Example 13, N-((1-(2-((1-(3,4-dichlorophenylsulfonyl)-1,2,3,4-tetrahydroquinolin-2-yl)methoxy)acetyl)-4-(4-methylpiperazin-1-yl)piperidin-4-yl)methyl)-2-phenylacetamide] |
| 102% | – | COc1cc(C)c(S(=O)(=O)N2CCCCC2CCOCC(=O)N2CCC(CNC(=O)c3ccncc3)(N3CCN(C)CC3)CC2)c(C)c1 (stereo not shown) [Example 53, N-((1-(2-(2-(1-(4-Methoxy-2,6-dimethylphenylsulfonyl)piperidin-2-yl)ethoxy)acetyl)-4-(4-methylpiperazin-1-yl)piperidin-4-yl)methyl)isonicotinamide] |
| 66% | – | CN1CCN(C2(CNC(=O)c3ccncc3)CCN(C(=O)CCCN(C)S(=O)(=O)c3cccc(C(F)(F)F)c3)CC2)CC1 [Example 54, N-((1-(4-(N-Methyl-3-(trifluoromethyl)phenylsulfonamido)butanoyl)-4-(4-methylpiperazin-1-yl)piperidin-4-yl)methyl)isonicotinamide] |
